Data from ChEMBL document CHEMBL3621068, “Synthesis and biological evaluation of a new class of quinazolinoneazoles as potential antimicrobial agents and their interactions with calf thymus DNA and human serum albumin” (Medchemcomm, 2015).
Values after ≈ are worked out from the molar mass of the structure shown.

Experiments:
Type in all cases: functional
Cyberlindnera jadinii = experiment: Antifungal activity against Candida utilis ATCC 9950 after 24 hrs by micro broth dilution assay; conditions: Williopsis jadinii, ATCC 9950, 24 h
Aspergillus flavus [1] = experiment: Antifungal activity against Aspergillus flavus ATCC 204304 after 24 hrs by micro broth dilution assay; conditions: ATCC 204304, 24 h
Saccharomyces cerevisiae = experiment: Antifungal activity against Beer yeast ATCC 9763 after 24 hrs by micro broth dilution assay; conditions: ATCC 9763, 24 h
Candida albicans = experiment: Antifungal activity against Candida albicans ATCC 10231 after 24 hrs by micro broth dilution assay; conditions: ATCC 10231, 24 h
Candida = experiment: Antifungal activity against Candida mycoderma ATCC 9888 after 24 hrs by micro broth dilution assay; conditions: ATCC 9888, 24 h
Micrococcus luteus = experiment: Antibacterial activity against Micrococcus luteus ATCC 4698 after 24 hrs by micro broth dilution assay; conditions: ATCC 4698, 24 h
Staphylococcus aureus [2] = experiment: Antibacterial activity against methicillin-resistant Staphylococcus aureus N315 after 24 hrs by micro broth dilution assay; conditions: N315, 24 h
Staphylococcus aureus [3] = experiment: Antibacterial activity against Staphylococcus aureus ATCC 25923 after 24 hrs by micro broth dilution assay; conditions: ATCC 25923, 24 h
Bacillus spizizenii [4] = experiment: Antibacterial activity against Bacillus subtilis ATCC 6633 after 24 hrs by micro broth dilution assay; conditions: ATCC 6633, 24 h
Pseudomonas aeruginosa = experiment: Antibacterial activity against Pseudomonas aeruginosa ATCC 27853 a after 24 hrs by micro broth dilution assay; conditions: ATCC 27853, 24 h
Escherichia coli = experiment: Antibacterial activity against Escherichia coli DH52 after 24 hrs by micro broth dilution assay; conditions: DH52, 24 h
Bacillus sp. = experiment: Antibacterial activity against Bacillus proteus ATCC 13315 after 24 hrs by micro broth dilution assay; conditions: Bacillus sp. (in: firmicutes), ATCC 13315, 24 h
[5] = Antibacterial activity against Eberthella typhosa ATCC 14028 after 24 hrs by micro broth dilution assay; conditions: ATCC 14028, 24 h
Bacillus spizizenii [6] = experiment: Ratio of chloromycin MIC to compound MIC for Bacillus subtilis ATCC 6633
Aspergillus flavus [7] = experiment: Ratio of fluconazole MIC to compound MIC for Aspergillus flavus ATCC 204304

| SMILES | MIC (Cyberlindnera jadinii) | MIC (Aspergillus flavus [1]) | MIC (Saccharomyces cerevisiae) | MIC (Candida albicans) | MIC (Candida) | MIC (Micrococcus luteus) | MIC (Staphylococcus aureus [2]) | MIC (Staphylococcus aureus [3]) | MIC (Bacillus spizizenii [4]) | MIC (Pseudomonas aeruginosa) | MIC (Escherichia coli) | MIC (Bacillus sp.) | MIC [5] | Ratio (Bacillus spizizenii [6]) | Ratio (Aspergillus flavus [7]) |
| --- | --- | --- | --- | --- | --- | --- | --- | --- | --- | --- | --- | --- | --- | --- | --- |
| O=c1c2ccc(F)cc2ncn1CCCCCCCCCCn1cnc([N+](=O)[O-])c1 | 150 µM (≈ 62.3 µg/mL) | 150 µM (≈ 62.3 µg/mL) | 80 µM (≈ 33.2 µg/mL) | 40 µM (≈ 16.6 µg/mL) | 40 µM (≈ 16.6 µg/mL) | 40 µM (≈ 16.6 µg/mL) | 150 µM (≈ 62.3 µg/mL) | 310 µM (≈ 129 µg/mL) | 20 µM (≈ 8.31 µg/mL) | 80 µM (≈ 33.2 µg/mL) | 150 µM (≈ 62.3 µg/mL) | 80 µM (≈ 33.2 µg/mL) | 310 µM (≈ 129 µg/mL) | 5 | – |
| Cc1ncc([N+](=O)[O-])n1CCCCCCn1cnc2cc(F)ccc2c1=O | 20 µM (≈ 7.47 µg/mL) | 10 µM (≈ 3.73 µg/mL) | 40 µM (≈ 14.9 µg/mL) | 20 µM (≈ 7.47 µg/mL) | 20 µM (≈ 7.47 µg/mL) | 40 µM (≈ 14.9 µg/mL) | 40 µM (≈ 14.9 µg/mL) | 40 µM (≈ 14.9 µg/mL) | 20 µM (≈ 7.47 µg/mL) | > 1370 µM | 40 µM (≈ 14.9 µg/mL) | 40 µM (≈ 14.9 µg/mL) | 20 µM (≈ 7.47 µg/mL) | – | 84 |
| O=c1c2ccc(Cl)cc2ncn1CCn1ccnc1 | 470 µM (≈ 129 µg/mL) | 930 µM (≈ 255 µg/mL) | 930 µM (≈ 255 µg/mL) | 930 µM (≈ 255 µg/mL) | > 1860 µM | 470 µM (≈ 129 µg/mL) | 930 µM (≈ 255 µg/mL) | > 1860 µM | > 1860 µM | 930 µM (≈ 255 µg/mL) | 1860 µM (≈ 511 µg/mL) | 1860 µM (≈ 511 µg/mL) | > 1860 µM | – | – |
| O=c1c2ccc(F)cc2ncn1CCCCCCn1cnc([N+](=O)[O-])c1 | 360 µM (≈ 129 µg/mL) | 180 µM (≈ 64.7 µg/mL) | 90 µM (≈ 32.3 µg/mL) | 40 µM (≈ 14.4 µg/mL) | 40 µM (≈ 14.4 µg/mL) | 40 µM (≈ 14.4 µg/mL) | 180 µM (≈ 64.7 µg/mL) | 360 µM (≈ 129 µg/mL) | 20 µM (≈ 7.19 µg/mL) | 360 µM (≈ 129 µg/mL) | 180 µM (≈ 64.7 µg/mL) | 90 µM (≈ 32.3 µg/mL) | 360 µM (≈ 129 µg/mL) | 5 | – |
| CCn1cc(C(=O)O)c(=O)c2cc(F)c(N3CCNCC3)cc21 [NORFLOXACIN] | > 1600 µM | > 1600 µM | > 1600 µM | > 1600 µM | > 1600 µM | 10 µM (≈ 3.19 µg/mL) | 30 µM (≈ 9.58 µg/mL) | 10 µM (≈ 3.19 µg/mL) | 10 µM (≈ 3.19 µg/mL) | 10 µM (≈ 3.19 µg/mL) | 50 µM (≈ 16 µg/mL) | 10 µM (≈ 3.19 µg/mL) | 10 µM (≈ 3.19 µg/mL) | – | – |
| Cc1ncc([N+](=O)[O-])n1CCCCn1cnc2cc(Cl)ccc2c1=O | 20 µM (≈ 7.24 µg/mL) | 40 µM (≈ 14.5 µg/mL) | 40 µM (≈ 14.5 µg/mL) | 20 µM (≈ 7.24 µg/mL) | 40 µM (≈ 14.5 µg/mL) | 40 µM (≈ 14.5 µg/mL) | 20 µM (≈ 7.24 µg/mL) | 40 µM (≈ 14.5 µg/mL) | 40 µM (≈ 14.5 µg/mL) | > 1420 µM | 40 µM (≈ 14.5 µg/mL) | 20 µM (≈ 7.24 µg/mL) | 20 µM (≈ 7.24 µg/mL) | – | – |
| O=c1c2ccc(Cl)cc2ncn1CCCCCCCCCCBr | 320 µM (≈ 128 µg/mL) | > 1280 µM | 640 µM (≈ 256 µg/mL) | > 1280 µM | > 1280 µM | 320 µM (≈ 128 µg/mL) | 640 µM (≈ 256 µg/mL) | > 1280 µM | 1280 µM (≈ 512 µg/mL) | > 1280 µM | 640 µM (≈ 256 µg/mL) | 320 µM (≈ 128 µg/mL) | > 1280 µM | – | – |
| O=c1c2ccc(Cl)cc2ncn1CCCCCn1cnc([N+](=O)[O-])c1 | 350 µM (≈ 127 µg/mL) | 710 µM (≈ 257 µg/mL) | 90 µM (≈ 32.6 µg/mL) | 90 µM (≈ 32.6 µg/mL) | 180 µM (≈ 65.1 µg/mL) | 40 µM (≈ 14.5 µg/mL) | 180 µM (≈ 65.1 µg/mL) | 180 µM (≈ 65.1 µg/mL) | 40 µM (≈ 14.5 µg/mL) | 350 µM (≈ 127 µg/mL) | 350 µM (≈ 127 µg/mL) | 350 µM (≈ 127 µg/mL) | 350 µM (≈ 127 µg/mL) | – | – |
| Cc1ncc([N+](=O)[O-])n1CCCCn1cnc2cc(F)ccc2c1=O | 50 µM (≈ 17.3 µg/mL) | 20 µM (≈ 6.91 µg/mL) | 50 µM (≈ 17.3 µg/mL) | 20 µM (≈ 6.91 µg/mL) | 50 µM (≈ 17.3 µg/mL) | 50 µM (≈ 17.3 µg/mL) | 20 µM (≈ 6.91 µg/mL) | 50 µM (≈ 17.3 µg/mL) | 50 µM (≈ 17.3 µg/mL) | > 1480 µM | 50 µM (≈ 17.3 µg/mL) | 20 µM (≈ 6.91 µg/mL) | 20 µM (≈ 6.91 µg/mL) | – | – |
| Cc1ncc([N+](=O)[O-])n1CCCCCCn1cnc2cc(Cl)ccc2c1=O | 20 µM (≈ 7.8 µg/mL) | 40 µM (≈ 15.6 µg/mL) | 20 µM (≈ 7.8 µg/mL) | 20 µM (≈ 7.8 µg/mL) | 20 µM (≈ 7.8 µg/mL) | 40 µM (≈ 15.6 µg/mL) | 20 µM (≈ 7.8 µg/mL) | 20 µM (≈ 7.8 µg/mL) | 40 µM (≈ 15.6 µg/mL) | > 1310 µM | 40 µM (≈ 15.6 µg/mL) | 20 µM (≈ 7.8 µg/mL) | 20 µM (≈ 7.8 µg/mL) | – | – |
| O=c1c2ccc(Cl)cc2ncn1CCn1cncn1 | 460 µM (≈ 127 µg/mL) | 930 µM (≈ 256 µg/mL) | 460 µM (≈ 127 µg/mL) | 930 µM (≈ 256 µg/mL) | 460 µM (≈ 127 µg/mL) | 30 µM (≈ 8.27 µg/mL) | 460 µM (≈ 127 µg/mL) | 930 µM (≈ 256 µg/mL) | 460 µM (≈ 127 µg/mL) | 30 µM (≈ 8.27 µg/mL) | 230 µM (≈ 63.4 µg/mL) | 930 µM (≈ 256 µg/mL) | 930 µM (≈ 256 µg/mL) | – | – |
| O=c1c2ccc(F)cc2ncn1CCCCCn1cnc([N+](=O)[O-])c1 | 370 µM (≈ 128 µg/mL) | 740 µM (≈ 256 µg/mL) | 90 µM (≈ 31.1 µg/mL) | 90 µM (≈ 31.1 µg/mL) | 190 µM (≈ 65.6 µg/mL) | 50 µM (≈ 17.3 µg/mL) | 190 µM (≈ 65.6 µg/mL) | 190 µM (≈ 65.6 µg/mL) | 20 µM (≈ 6.91 µg/mL) | 370 µM (≈ 128 µg/mL) | 370 µM (≈ 128 µg/mL) | 370 µM (≈ 128 µg/mL) | 370 µM (≈ 128 µg/mL) | 5 | – |
| O=c1c2ccc(Cl)cc2ncn1CCn1cnc([N+](=O)[O-])c1 | 400 µM (≈ 128 µg/mL) | > 1600 µM | 200 µM (≈ 63.9 µg/mL) | 100 µM (≈ 32 µg/mL) | 800 µM (≈ 256 µg/mL) | 50 µM (≈ 16 µg/mL) | 200 µM (≈ 63.9 µg/mL) | 800 µM (≈ 256 µg/mL) | 50 µM (≈ 16 µg/mL) | > 1600 µM | 800 µM (≈ 256 µg/mL) | 400 µM (≈ 128 µg/mL) | 400 µM (≈ 128 µg/mL) | – | – |
| O=c1c2ccc(Cl)cc2ncn1CCBr | 890 µM (≈ 256 µg/mL) | > 1780 µM | 890 µM (≈ 256 µg/mL) | > 1780 µM | > 1780 µM | 450 µM (≈ 129 µg/mL) | 890 µM (≈ 256 µg/mL) | > 1780 µM | 1780 µM (≈ 512 µg/mL) | > 1780 µM | 1780 µM (≈ 512 µg/mL) | 890 µM (≈ 256 µg/mL) | > 1780 µM | – | – |
| Cc1ncc([N+](=O)[O-])n1CCCCCn1cnc2cc(Cl)ccc2c1=O | 20 µM (≈ 7.52 µg/mL) | 20 µM (≈ 7.52 µg/mL) | 40 µM (≈ 15 µg/mL) | 20 µM (≈ 7.52 µg/mL) | 20 µM (≈ 7.52 µg/mL) | 40 µM (≈ 15 µg/mL) | 20 µM (≈ 7.52 µg/mL) | 40 µM (≈ 15 µg/mL) | 20 µM (≈ 7.52 µg/mL) | > 1360 µM | 20 µM (≈ 7.52 µg/mL) | 20 µM (≈ 7.52 µg/mL) | 20 µM (≈ 7.52 µg/mL) | – | – |
